Tests used:
[1] = molecular target: T1, human muscarinic M3 receptor (Homo sapiens (Human), UniProt P20309); experiment: Binding assay on human muscarinic M3 receptor ([3H]-methyl scopolamine displacement); settings: membranes overexpressing human M3 receptor, Ki from IC50 by Cheng-Prusoff, read-out: Binding Affinity to M3 Receptor, Ki
In short: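 Displacement of [3H]-methyl scopolamine from membranes overexpressing human M3, in Tris-HCl, 25 °C, 120 min; filter-bound radioactivity counted. Nonspecific binding with 5 μM atropine; Ki from IC50 via Cheng-Prusoff.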

[2] = tested on: rhythmic bladder contractions; experiment: Rhythmic bladder contractions in rats (in vivo); design: species or system rat; settings: 0.3 mpk, intravenous, female Sprague-Dawley rats; amplitude reduction of bladder contractions
Source text: [Experimental Example 3] Experiment on Rhythmic Bladder Contractions in Rats (In Vivo)
Female Sprague-Dawley rat was halothane-anesthetized, and a polyethylene catheter was inserted through urethra lay down straight and fixed. Urine in bladder was excreted through the catheter by gently massaging abdomen of the rat, and then removed. A three-way stopcock was connected to the catheter and a pressure transducer was connected to one side of the three-way stopcock to measure pressure, and a syringe was installed at the other side to inject 37° C. of saline solution. The saline solution was slowly injected until regular bladder contractions occurred repeatedly. When regular bladder contractions occurred stably, test compounds were administered intravenously through the tail vein. Inhibitory effect of the test compounds was evaluated by measuring degree of amplitude reduction of bladder contractions.

[3] = molecular target: T1, human muscarinic M3 receptor; experiment: Antagonism assay on human muscarinic M3 receptor (carbachol-induced intracellular calcium, FLIPR Calcium 5, transfected Cos-7 cells); format: cell-based; settings: functional inhibitory constant; carbachol-induced intracellular calcium in Cos-7 cells transfected with human M3 receptor
Procedure: [Experimental Example 2] Antagonism Assay on Human Muscarinic M3 Receptor
The antagonism assay for various compounds of the present invention was conducted on antagonism to human M3 receptor in Cos-7 cells that was transfected with plasmid coding human muscarinic M3 receptor. Test compounds in various concentrations were pre-treated to the cells for 3 minutes, and then the changes of intracellular calcium were measured after treating the same with carbachol (i.e. muscarinic receptor agonist). The FLIPR® Calcium 5 assay (Molecular Devices) and Flex3 device (Molecular Devices) were used to measure concentration of calcium. Amounts of calcium before and after carbachol treatment were set as 0% and 100% respectively. Inhibition rates (%) by the compounds for increase in intracellular calcium by carbachol were calculated. The antagonistic potency of the test compounds on human muscarinic M3 receptor was calculated as the functional inhibitory constant (Ki), which can be calculated from concentration (IC50) of compound inhibiting 50% of activity of carbachol according to Cheng and Prusoff equation.

T1 sequence (P20309 whole entry): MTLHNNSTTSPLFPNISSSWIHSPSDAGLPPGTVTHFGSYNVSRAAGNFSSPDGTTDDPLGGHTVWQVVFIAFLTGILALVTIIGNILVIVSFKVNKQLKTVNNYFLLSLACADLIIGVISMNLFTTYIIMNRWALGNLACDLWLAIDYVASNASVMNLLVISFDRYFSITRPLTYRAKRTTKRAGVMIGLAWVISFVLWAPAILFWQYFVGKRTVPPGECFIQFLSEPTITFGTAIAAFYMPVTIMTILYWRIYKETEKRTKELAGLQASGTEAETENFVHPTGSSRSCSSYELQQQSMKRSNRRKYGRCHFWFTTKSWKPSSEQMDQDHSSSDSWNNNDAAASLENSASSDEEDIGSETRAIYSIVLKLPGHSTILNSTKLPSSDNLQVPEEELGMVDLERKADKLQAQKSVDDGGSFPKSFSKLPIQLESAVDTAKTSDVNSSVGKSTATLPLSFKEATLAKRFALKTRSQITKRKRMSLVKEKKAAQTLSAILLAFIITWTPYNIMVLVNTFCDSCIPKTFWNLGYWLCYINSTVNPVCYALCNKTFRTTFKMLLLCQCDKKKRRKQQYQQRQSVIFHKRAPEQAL

SMILES: Cc1ccc(NC(=O)OCCC2CCCN2C)c(-c2ccccc2)c1 (stereo not shown) [Example 26, 2-(1-methylpyrrolidin-2-yl)ethyl(5-methyl-[1,1′-biphenyl]-2-yl)carbamate]
- Ki [1]: 18.5 nM
- Inhibition of Rhythmic bladder contraction in rats [2]: 11.0 ± 2.5%

SMILES: CN1CC[C@@H](COC(=O)Nc2ccccc2-c2ccc(F)cc2F)C1 [Example 157, (R)-(1-methylpyrrolidin-3-yl)methyl-(2′,4′-difluoro-[1,1′-biphenyl]-2-yl)carbamate]
- Ki [3]: 3.25 nM
- Ki [1]: 29.6 nM

SMILES: CN1CCCC1CCOC(=O)Nc1ccc(Cl)cc1-c1ccc(F)cc1 (stereo not shown) [Example 68, 2-(1-Methylpyrrolidin-2-yl)ethyl(5-chloro-4′-fluoro-[1,1′-biphenyl]-2-yl)carbamate]
- Ki [3]: 13.2 nM
- Ki [1]: 13.2 nM

SMILES: CN1CC[C@@H](COC(=O)Nc2ccc(F)cc2-c2cc(Cl)cc(Cl)c2)C1 [Example 135, (R)-(1-methylpyrrolidin-3-yl)methyl(3′,5′-dichloro-5-fluoro-[1,1′-biphenyl]-2-yl)carbamate]
- Ki [3]: 16.5 nM
- Ki [1]: 24.1 nM

SMILES: CN1CCCC1CCOC(=O)Nc1ccccc1-c1cc(Cl)ccc1F (stereo not shown) [Example 186, 2-(1-Methylpyrrolidin-2-yl)ethyl (5′-chloro-2′-fluoro-[1,1′-biphenyl]-2-yl)carbamate]
- Ki [3]: 0.34 nM
- Ki [1]: 4.68 nM

SMILES: CN1CCCC1CCOC(=O)Nc1ccc(Cl)cc1-c1cccc(F)c1 (stereo not shown) [Example 67, 2-(1-Methylpyrrolidin-2-yl)ethyl(5-chloro-3′-fluoro-[1,1′-biphenyl]-2-yl)carbamate]
- Ki [3]: 11.9 nM
- Ki [1]: 16.3 nM

SMILES: CCN1CC[C@@H](COC(=O)Nc2ccc(F)cc2-c2ccc(F)c(Cl)c2)C1 [Example 196, (R)-(1-ethylpyrrolidin-3-yl)methyl (3′-chloro-4′,5-difluoro-[1,1′-biphenyl]-2-yl)carbamate]
- Ki [3]: 1.54 nM
- Ki [1]: 7.67 nM

SMILES: CN1CC[C@H](COC(=O)Nc2ccccc2-c2cccc(Cl)c2)C1 [Example 118, (S)-(1-methylpyrrolidin-3-yl)methyl(3′-chloro-[1,1′-biphenyl]-2-yl)carbamate]
- Ki [3]: 0.77 nM
- Ki [1]: 2.42 nM

SMILES: CN1CCCC1CCOC(=O)Nc1ccc(F)cc1-c1cc(Cl)c(F)c(Cl)c1 (stereo not shown) [Example 56, 2-(1-methylpyrrolidin-2-yl)ethyl(3′,5′-dichloro-4′,5-difluoro-[1,1′-biphenyl]-2-yl)carbamate]
- Ki [3]: 10 nM
- Ki [1]: 12.5 nM

SMILES: CN1CC[C@H](COC(=O)Nc2ccc(F)cc2-c2cc(Cl)cc(Cl)c2)C1 [Example 126, (S)-(1-methylpyrrolidin-3-yl)methyl(3′,5′-dichloro-5-fluoro-[1,1′-biphenyl]-2-yl)carbamate]
- Ki [3]: 17.5 nM
- Ki [1]: 24.8 nM

SMILES: CN1CCCC1CCOC(=O)Nc1ccc(F)cc1-c1ccc(Cl)c(Cl)c1 (stereo not shown) [Example 43, 2-(1-methylpyrrolidin-2-yl)ethyl(3′,4′-dichloro-5-fluoro-[1,1′-biphenyl]-2-yl)carbamate]
- Ki [1]: 1.48 nM
- Inhibition of Rhythmic bladder contraction in rats [2]: 8.9 ± 2.3%

SMILES: CCN1CCC[C@H]1COC(=O)Nc1ccccc1-c1ccccc1 [Example 106, (S)-(1-ethylpyrrolidin-2-yl)methyl [1,1′-biphenyl]-2-ylcarbamate]
- Ki [1]: 0.8 nM
- Inhibition of Rhythmic bladder contraction in rats [2]: 32.7 ± 5.2%

SMILES: CN1CCC[C@H]1COC(=O)Nc1ccccc1-c1ccc(F)c(Cl)c1 [Example 149, (S)-(1-methylpyrrolidin-2-yl)methyl(3′-chloro-4′-fluoro-[1,1′-biphenyl]-2-yl)carbamate]
- Ki [3]: 0.1 nM
- Ki [1]: 1.57 nM

SMILES: CN1CCC[C@H]1COC(=O)Nc1ccccc1-c1ccccc1 [Example 197, (S)-(1-methylpyrrolidin-2-yl)-methyl [1,1′-biphenyl]-2-ylcarbamate]
- Ki [1]: 0.78 nM
- Inhibition of Rhythmic bladder contraction in rats [2]: 32.8 ± 9.7%

SMILES: CN1CCCC1COC(=O)Nc1ccccc1-c1ccc(F)cc1 (stereo in doubt) [Example 99, (S)-(1-methylpyrrolidin-2-yl)methyl (4′-fluoro-[1,1′-biphenyl]-2-yl)carbamate]
- Ki [1]: 8.1 nM
- Inhibition of Rhythmic bladder contraction in rats [2]: 16.3 ± 1.0%

SMILES: CN1CCCC1CCOC(=O)Nc1ccc(F)cc1-c1cccc(Cl)c1 (stereo not shown) [Example 17, 2-(1-methylpyrrolidin-2-yl)ethyl(3′-chloro-5-fluoro-[1,1′-biphenyl]-2-yl)carbamate]
- Ki [1]: 1 nM
- Inhibition of Rhythmic bladder contraction in rats [2]: 27.9 ± 6.1%

SMILES: CN1CC[C@@H](COC(=O)Nc2ccccc2-c2ccc(Cl)c(Cl)c2)C1 [Example 130, (R)-(1-methylpyrrolidin-3-yl)-methyl (3′,4′-dichloro-[1,1′-biphenyl]-2-yl)carbamate]
- Ki [3]: 1.14 nM
- Ki [1]: 2.1 nM

SMILES: CN1CC[C@H](COC(=O)Nc2ccccc2-c2cc(F)cc(Cl)c2)C1 [Example 120, (S)-(1-methylpyrrolidin-3-yl)methyl(3′-chloro-5′-fluoro-[1,1′-biphenyl]-2-yl)carbamate]
- Ki [3]: 1.03 nM
- Ki [1]: 9.7 nM

SMILES: CN1CCCC1CCOC(=O)Nc1ccc(O)cc1-c1ccc(F)c(Cl)c1 (stereo not shown) [Example 77, 2-(1-methylpyrrolidin-2-yl)ethyl (3′-chloro-4′-fluoro-5-hydroxy-[1,1′-biphenyl]-2-yl)carbamate]
- Ki [3]: 10 nM
- Ki [1]: 22 nM

SMILES: CN1CCC[C@H]1COC(=O)Nc1ccccc1-c1cc(F)cc(Cl)c1 [Example 148, (S)-(1-methylpyrrolidin-2-yl)methyl(3′-chloro-5′-fluoro-[1,1′-biphenyl]-2-yl)carbamate]
- Ki [3]: 2.22 nM
- Ki [1]: 10.2 nM

SMILES: CN1CCCC1CCOC(=O)Nc1ccc(F)cc1-c1ccccc1 (stereo not shown) [Example 21, 2-(1-methylpyrrolidin-2-yl)ethyl(5-fluoro-[1,1′-biphenyl]-2-yl)carbamate]
- Ki [3]: 0.49 nM
- Ki [1]: 2.25 nM

SMILES: CN1CCC[C@H]1COC(=O)Nc1ccc(F)cc1-c1ccc(F)c(Cl)c1 [Example 211, (S)-(1-methylpyrrolidin-2-yl)methyl(3′-chloro-4′,5-difluoro-[1,1′-biphenyl]-2-yl)carbamate]
- Ki [3]: 10 nM
- Ki [1]: 9.91 nM

SMILES: CN1CC[C@H](COC(=O)Nc2ccccc2-c2cccc(F)c2)C1 [Example 116, (S)-(1-methylpyrrolidin-3-yl)-methyl (3′-fluoro-[1,1′-biphenyl]-2-yl)carbamate]
- Ki [3]: 1.21 nM
- Ki [1]: 12.6 nM

SMILES: CN1CC[C@@H](COC(=O)Nc2ccccc2-c2ccc(F)cc2)C1 [Example 114, (R)-(1-methylpyrrolidin-3-yl)methyl(4′-fluoro-[1,1′-biphenyl]-2-yl)carbamate]
- Ki [3]: 0.58 nM
- Ki [1]: 4.23 nM

SMILES: COc1ccc(NC(=O)OC[C@@H]2CCCN2C)c(-c2cccc(Cl)c2)c1 [Example 224, (S)-(1-methylpyrrolidin-2-yl)methyl(3′-chloro-5-methoxy-[1,1′-biphenyl]-2-yl)carbamate]
- Ki [3]: 7.5 nM
- Ki [1]: 15.1 nM

SMILES: CN1CCCC1CCOC(=O)Nc1ccccc1-c1ccc(F)c(Cl)c1 (stereo not shown) [Example 41, 2-(1-methylpyrrolidin-2-yl)ethyl(3′-chloro-4′-fluoro-[1,1′-biphenyl]-2-yl)carbamate]
- Ki [3]: 0.18 nM
- Ki [1]: 2.45 nM

SMILES: CC(C)N1CC[C@@H](COC(=O)Nc2ccccc2-c2ccc(F)c(Cl)c2)C1 [Example 151, (R)-(1-isopropylpyrrolidin-3-yl)-methyl (3′-chloro-4′-fluoro-[1,1′-biphenyl]-2-yl)carbamate]
- Ki [3]: 2.67 nM
- Ki [1]: 14.9 nM

SMILES: CN1CC[C@@H](COC(=O)Nc2ccccc2-c2ccc(F)c(F)c2)C1 [Example 115, (R)-(1-methylpyrrolidin-3-yl)methyl(3′,4′-difluoro-[1,1′-biphenyl]-2-yl)carbamate]
- Ki [3]: 0.32 nM
- Ki [1]: 7.49 nM

SMILES: CN1CCCC1CCOC(=O)Nc1ccc(F)cc1-c1ccc(O)c(Cl)c1 (stereo not shown) [Example 58, 2-(1-methylpyrrolidin-2-yl)ethyl(3′-chloro-5-fluoro-4′-hydroxy-[1,1′-biphenyl]-2-yl)carbamate]
- Ki [3]: 4.7 nM
- Ki [1]: 26.3 nM

SMILES: CN1CCC[C@H]1COC(=O)Nc1ccccc1-c1ccccc1F [Example 187, (S)-(1-methylpyrrolidin-2-yl)methyl(2′-fluoro-[1,1′-biphenyl]-2-yl)carbamate]
- Ki [3]: 0.48 nM
- Ki [1]: 10.7 nM

SMILES: CN1CC[C@@H](COC(=O)Nc2ccc(F)cc2-c2ccccc2F)C1 [Example 144, (R)-(1-methylpyrrolidin-3-yl)methyl(2′,5-difluoro-[1,1′-biphenyl]-2-yl)carbamate]
- Ki [3]: 1.42 nM
- Ki [1]: 17.2 nM

SMILES: CN1CC[C@@H](COC(=O)Nc2ccccc2-c2cc(Cl)ccc2F)C1 [Example 159, (R)-(1-methylpyrrolidin-3-yl)methyl(3′-chloro-6′-fluoro-[1,1′-biphenyl]-2-yl)carbamate]
- Ki [3]: 0.46 nM
- Ki [1]: 5.13 nM

— US9828339B2, “Biphenyl derivatives and methods for preparing same” (DONG-A ST CO., LTD, priority 2013, dated 2017)
